pIC50: −log10 of the molar value.
What was measured:
[1] = target: AMPA receptors; experiment: AMPA receptor binding affinity (Honore et al. method); conditions: Table 1, AMPA
[2] = target: kainate site (non-NMDA receptor); experiment: Kainate site (non-NMDA receptor) binding affinity (London and Coyle method); conditions: Table 1, KA (kainate)
[3] = target: T1, glycine site of the NMDA receptor (Rattus norvegicus, UniProt P35439); experiment: Glycine site of the NMDA receptor binding affinity (Jones et al. method); conditions: Table 1, GLY (glycine site of NMDA receptor)
T1 construct: from tissue

| Structure (SMILES) | pIC50 [1] | IC50 KA [2] [nM] | pIC50 [3] |
| --- | --- | --- | --- |
| COc1ccc(NC(=S)N(C)Cc2c(C)c([N+](=O)[O-])cc3[nH]c(=O)c(=O)[nH]c23)cc1 [Compound 3, 3-(4-Methoxy-phenyl)-1-methyl-1-(6-methyl-7-nitro-2,3-dioxo-1,2,3,4-tetrahydro-quinoxalin-5-ylmethyl)-thiourea] | 6.64 | 2540 | 7.40 |
| Cc1ccc(NC(=O)N(C)Cc2c(C)c([N+](=O)[O-])cc3[nH]c(=O)c(=O)[nH]c23)c(C)c1 [Compound 4, 3-(2,4-Dimethyl-phenyl)-1-methyl-1-(6-methyl-7-nitro-2,3-dioxo-1,2,3,4-tetrahydro-quinoxalin-5-ylmethyl)-urea] | 5.44 | 6700 | 7.70 |
| CCOC(=O)c1ccc(NC(=O)N(C)Cc2c(C)c([N+](=O)[O-])cc3[nH]c(=O)c(=O)[nH]c23)cc1 [Compound 7, 4-(3-Methyl-3-(6-methyl-7-nitro-2,3-dioxo-1,2,3,4-tetrahydro-quinoxalin-5-ylmethyl)ureido)-benzoic acid ethyl ester] | 5.39 | 18400 | 8.00 |
| COc1ccc(OC)c(NC(=O)N(C)Cc2c(C)c([N+](=O)[O-])cc3[nH]c(=O)c(=O)[nH]c23)c1 [Compound 5, 3-(2,5-Dimethoxy-phenyl)-1-methyl-1-(6-methyl-7-nitro-2,3-dioxo-1,2,3,4-tetrahydro-quinoxalin-5-ylmethyl)-urea] | 5.52 | 9540 | 8.00 |

More lines, in order of rising pIC50 [1], values ahead:

| pIC50 [1] | IC50 KA [2] [nM] | pIC50 [3] | Structure (SMILES) |
| --- | --- | --- | --- |
| 5.55 | 7500 | 8.00 | Cc1c([N+](=O)[O-])cc2[nH]c(=O)c(=O)[nH]c2c1CN(C)C(=O)Nc1ccccc1C(F)(F)F [Compound 6, 1-Methyl-1-(6-methyl-7-nitro-2,3-dioxo-1,2,3,4-tetrahydro-quinoxalin-5-ylmethyl)-3-(2-trifluoromethyl-phenyl)-urea] |
| 6.77 | 1120 | 8.30 | COc1ccc(NC(=O)N(C)Cc2c(C)c([N+](=O)[O-])cc3[nH]c(=O)c(=O)[nH]c23)cc1 [Compound 2, 3-(4-Methoxy-phenyl)-1-methyl-1-(6-methyl-7-nitro-2,3-dioxo-1,2,3,4-tetrahydro-quinoxalin-5-ylmethyl)-urea] |
| 6.89 | 820 | 8.10 | Cc1c([N+](=O)[O-])cc2[nH]c(=O)c(=O)[nH]c2c1CN(C)C(=O)Nc1ccccc1 [Compound 1, 1-Methyl-1-(6-methyl-7-nitro-2,3-dioxo-1,2,3,4-tetrahydro-quinoxalin-5-ylmethyl)-3-phenyl-urea] |

— US6172065A, “Urea and thiourea derivatives of substituted quinoxaline 2,3-diones as glutamate receptor antagonists” (Warner-Lambert Company, priority 1998, dated 2001)
